In brackets after ≈: the same amount, converted by molar mass. Activity calls are given as the source filed them. Unless noted, the calls are words filed in the database; no cut-off is given here.
Assays:
Vero = test: Cytotoxicity against african green monkey Vero cells up to 4.6 ug/ml after 48 hrs by neutral red assay; format: cell-based; conditions: chlorocebus sabaeus
Leishmania donovani [1] = test: Antileishmanial activity against axenic amastigote of Leishmania donovani after 72 hrs by alamar blue assay; format: functional, organism-based
Leishmania donovani [2] = test: Antileishmanial activity against promastigote of Leishmania donovani after 72 hrs by alamar blue assay; format: functional, organism-based
Aspergillus fumigatus = test: Antifungal activity against Aspergillus fumigatus ATCC 204305 by CLSI method; format: functional, organism-based
Cryptococcus neoformans = test: Antifungal activity against Cryptococcus neoformans ATCC 90113 by CLSI method; format: functional, organism-based
Candida albicans = test: Antifungal activity against Candida albicans ATCC 90028 by CLSI method; format: functional, organism-based
Staphylococcus aureus [3] = test: Antibacterial activity against methicillin-resistant Staphylococcus aureus ATCC 33591 by CLSI method; format: functional, organism-based
[4] = system: Mycobacterium intracellulare; test: Antibacterial activity against Mycobacterium intracellulare ATCC 23068 by alamar blue assay; format: functional, organism-based
Staphylococcus aureus [5] = test: Antibacterial activity against Staphylococcus aureus ATCC 29213 by CLSI method; format: functional, organism-based
[6] = Leishmania donovani, 72 h, read-out: IC50
[7] = Staphylococcus aureus, ATCC 33591, read-out: IC50

## COc1ccc2[nH]cc(C(c3ccc(O)cc3)c3c[nH]c4ccc(OC)cc34)c2c1
Vero
  Activity: Non-toxic
Leishmania donovani [1]; Leishmania donovani, 72 h
  IC90: 76.3 µM
Leishmania donovani [1]; [6]
  IC50: 42.9 µM
Leishmania donovani [2]; Leishmania donovani, 72 h
  IC90: 91 µM
Leishmania donovani [2]; [6]
  IC50: 81.1 µM

## COc1ccc2[nH]cc(C(c3ccc(Br)cc3)c3c[nH]c4ccc(OC)cc34)c2c1
Vero
  Activity: Non-toxic
Leishmania donovani [1]
  IC50: Not Active
  IC90: inactive
Leishmania donovani [2]; Leishmania donovani, 72 h
  IC90: 58.5 µM
Leishmania donovani [2]; [6]
  IC50: 32.7 µM

## C[C@@H]1[C@H](O)[C@@H](C)/C=C/C=C/C=C/C=C/C=C/C=C/C=C/[C@H](O[C@@H]2O[C@H](C)[C@@H](O)[C@H](N)[C@@H]2O)C[C@@H]2O[C@](O)(C[C@@H](O)C[C@@H](O)[C@H](O)CC[C@@H](O)C[C@@H](O)CC(=O)O[C@H]1C)C[C@H](O)[C@H]2C(=O)O [AMPHOTERICIN B]
Aspergillus fumigatus
  Activity: inactive
Cryptococcus neoformans
  IC50: 0.85 µM
  MFC: 1.35 µM (≈ 1.25 µg/mL)
  MIC: 1.35 µM (≈ 1.25 µg/mL)
Candida albicans
  Activity: inactive
Leishmania donovani [1]; Leishmania donovani, 72 h
  IC90: […]
Leishmania donovani [2]; Leishmania donovani, 72 h
  IC90: 0.35 µM

## COc1ccc2[nH]cc(C(c3cccc4ccccc34)c3c[nH]c4ccc(OC)cc34)c2c1
Vero
  Activity: Non-toxic
Staphylococcus aureus [3]
  IC50: Not Active
  MBC: inactive
  MIC: inactive
[4]
  IC50: Not Active
  MBC: inactive
  MIC: inactive
Leishmania donovani [1]
  IC90: inactive
Leishmania donovani [1]; [6]
  IC50: 33.2 µM
Staphylococcus aureus [5]
  IC50: 39.7 µM
  MBC: inactive
  MIC: inactive
Leishmania donovani [2]; Leishmania donovani, 72 h
  IC90: 82.9 µM
Leishmania donovani [2]; [6]
  IC50: 66.5 µM

## Clc1cccc(Cl)c1C(c1c[nH]c2ccc(I)cc12)c1c[nH]c2ccc(I)cc12
Vero
  Activity: Non-toxic
Leishmania donovani [1]
  IC50: Not Active
  IC90: inactive
Leishmania donovani [2]
  IC50: Not Active
  IC90: inactive

## Brc1ccc(C(c2c[nH]c3ccc(I)cc23)c2c[nH]c3ccc(I)cc23)cc1
Aspergillus fumigatus
  Activity: inactive
Vero
  Activity: Non-toxic
Cryptococcus neoformans
  IC50: 5.58 µM
  MFC: 30.7 µM (≈ 20 µg/mL)
  MIC: 30.7 µM (≈ 20 µg/mL)
Candida albicans
  Activity: inactive
Leishmania donovani [1]; Leishmania donovani, 72 h
  IC90: 46.6 µM
Leishmania donovani [1]; [6]
  IC50: 13.1 µM
Leishmania donovani [2]; Leishmania donovani, 72 h
  IC90: 8.47 µM
Leishmania donovani [2]; [6]
  IC50: 4.49 µM

## COc1ccc(C(c2c[nH]c3ccccc23)c2c[nH]c3ccccc23)cc1Br
Vero
  Activity: Non-toxic
Staphylococcus aureus [3]
  MBC: inactive
  MIC: inactive
Staphylococcus aureus [3]; [7]
  IC50: 31.5 µM
[4]
  IC50: Not Active
  MBC: inactive
  MIC: inactive
Leishmania donovani [1]
  IC50: Not Active
  IC90: inactive
Staphylococcus aureus [5]
  IC50: 7.84 µM
  MBC: inactive
  MIC: inactive
Leishmania donovani [2]
  IC90: inactive
Leishmania donovani [2]; [6]
  IC50: 82.9 µM

## c1ccc2c(C(c3c[nH]c4ccccc34)c3c[nH]c4ccccc34)c3ccccc3cc2c1
Vero
  Activity: Non-toxic
Leishmania donovani [1]
  IC90: inactive
Leishmania donovani [1]; [6]
  IC50: 53.4 µM
Leishmania donovani [2]; Leishmania donovani, 72 h
  IC90: 91.9 µM
Leishmania donovani [2]; [6]
  IC50: 82 µM

## Ic1ccc2[nH]cc(C(c3c4ccccc4cc4ccccc34)c3c[nH]c4ccc(I)cc34)c2c1
Vero
  Activity: Non-toxic
Leishmania donovani [1]
  IC50: Not Active
  IC90: inactive
Leishmania donovani [2]
  IC50: Not Active
  IC90: inactive

## COc1ccc2[nH]cc(C(c3c(Cl)cccc3Cl)c3c[nH]c4ccc(OC)cc34)c2c1
Vero
  Activity: Non-toxic
Staphylococcus aureus [3]
  MBC: inactive
  MIC: inactive
Staphylococcus aureus [3]; [7]
  IC50: 17.2 µM
[4]
  IC50: Not Active
  MBC: inactive
  MIC: inactive
Leishmania donovani [1]
  IC50: Not Active
  IC90: inactive
Staphylococcus aureus [5]
  IC50: 7.51 µM
  MBC: inactive
  MIC: inactive
Leishmania donovani [2]
  IC50: Not Active
  IC90: inactive

## COc1ccc2[nH]cc(C(c3ccc([N+](=O)[O-])o3)c3c[nH]c4ccc(OC)cc34)c2c1
Vero
  Activity: Non-toxic
Leishmania donovani [1]
  IC50: Not Active
  IC90: inactive
Leishmania donovani [2]; Leishmania donovani, 72 h
  IC90: 60 µM
Leishmania donovani [2]; [6]
  IC50: 37.3 µM

## Ic1ccc2[nH]cc(C(c3cccc4ccccc34)c3c[nH]c4ccc(I)cc34)c2c1
Vero
  Activity: Non-toxic
Leishmania donovani [1]
  IC50: Not Active
  IC90: inactive
Leishmania donovani [2]
  IC50: Not Active
  IC90: inactive

## COc1ccc2[nH]cc(C(c3ccc(F)c(Br)c3)c3c[nH]c4ccc(OC)cc34)c2c1
Vero
  Activity: Non-toxic
Staphylococcus aureus [3]
  MBC: inactive
  MIC: inactive
Staphylococcus aureus [3]; [7]
  IC50: 4.67 µM
[4]
  MBC: inactive
[4]; Mycobacterium intracellulare, ATCC 23068
  MIC: 41.8 µM (≈ 20 µg/mL)
[4]; Mycobacterium intracellulare, ATCC 23068, read-out: IC50
  IC50: 39.6 µM
Leishmania donovani [1]; Leishmania donovani, 72 h
  IC90: 66.8 µM
Leishmania donovani [1]; [6]
  IC50: 47.6 µM
Staphylococcus aureus [5]
  IC50: 3.45 µM
  MBC: inactive
  MIC: 10.5 µM (≈ 5.03 µg/mL)
Leishmania donovani [2]; Leishmania donovani, 72 h
  IC90: 46.6 µM
Leishmania donovani [2]; [6]
  IC50: 15.8 µM

## COc1ccc2[nH]cc(C(c3ccc([N+](=O)[O-])cc3)c3c[nH]c4ccc(OC)cc34)c2c1
Vero
  Activity: Non-toxic
Leishmania donovani [1]; Leishmania donovani, 72 h
  IC90: 64.2 µM
Leishmania donovani [1]; [6]
  IC50: 14.7 µM
Leishmania donovani [2]; Leishmania donovani, 72 h
  IC90: 18.8 µM
Leishmania donovani [2]; [6]
  IC50: 12.1 µM

From ChEMBL document CHEMBL2375321, “Discovery of 3,3'-diindolylmethanes as potent antileishmanial agents” (Eur J Med Chem, 2013)
